# Source: ChEMBL document CHEMBL4266047, “First Report of Plant-Derived β-Sitosterol with Antithrombotic, in Vivo Anticoagulant, and Thrombus-Preventing Activities in a Mouse Model” (J Nat Prod, 2018)
# The source made the active and inactive calls. The rule behind the calls is not given here.
# Assays:
# Platelet [1] = experiment: Antiplatelet activity in human platelet rich plasma up to 10 uM incubated for 5 mins measured after 300 secs; format: functional, cell-based
# Platelet [2] = experiment: Antiplatelet activity in human washed platelets up to 10 uM incubated for 5 mins measured after 300 secs; format: functional, cell-based
# Mus musculus [3] = experiment: Anticoagulant activity in Swiss albino mouse assessed as increase in prothrombin time at 50 mg/kg, iv measured after 5 hrs relative to control; format: functional
# Mus musculus [4] = experiment: Anticoagulant activity in Swiss albino mouse assessed as tail bleeding time at 50 mg/kg, iv measured after 5 hrs (reference value: 45.3 +/- 2.5 sec); format: functional
# Mus musculus [5] = experiment: Anticoagulant activity in Swiss albino mouse assessed as increase in activated partial thromboplastin time at 50 mg/kg, iv measured after 5 hrs relative to control; format: functional
# Mus musculus [6] = experiment: Anticoagulant activity in Swiss albino mouse assessed as plasma clotting time at 50 mg/kg, iv measured after 5 hrs (reference value: 175.5 +/- 9.1 sec); format: functional
# Prothrombin [7] = biological target: T1, Prothrombin (Homo sapiens, UniProt P00734); experiment: Binding affinity to human thrombin by isothermal calorimetric titration method
# Blood [8] = experiment: Thrombolytic activity in goat heated blood clot assessed as plasmin activation at 1 uM using V0882 as substrate incubated for 20 mins measured for 15 mins; format: functional, Capra hircus
# HEK293 = experiment: Cytotoxicity against HEK293 cells assessed as decrease in cell viability at 50 uM after 24 hrs by MTT assay; format: cell-based; conditions: human, hek293, 24 h
# Mus musculus [9] = experiment: Antithrombotic activity in Swiss albino mouse tail thrombosis model assessed as inhibition of k-carrageenan-induced thrombus formation at 12.5 mg/kg, po administered for one week followed by k-carrageenan challenge 30 mins post last compound dose and measured after 48 hrs; format: functional
# Mus musculus [10] = experiment: Antithrombotic activity in Swiss albino mouse tail thrombosis model assessed as inhibition of k-carrageenan-induced thrombus formation at 50 mg/kg, po administered for one week followed by k-carrageenan challenge 30 mins post last compound dose and measured after 72 hrs; format: functional
# Prothrombin [11] = biological target: T1, Prothrombin; experiment: Inhibition of human thrombin assessed as prolongation of fibrinogen clotting time of thrombin
# Heterodera schachtii [12] = experiment: Binding affinity to human fibrinogen at 1.25 to 15 uM after 3 mins by fluorescence spectrometric analysis
# Mus musculus [13] = experiment: Antithrombotic activity in Swiss albino mouse tail thrombosis model assessed as inhibition of k-carrageenan-induced thrombus formation at 12.5 mg/kg, po administered for one week followed by k-carrageenan challenge 30 mins post last compound dose and measured after 24 hrs; format: functional
# Mus musculus [14] = experiment: Antithrombotic activity in Swiss albino mouse tail thrombosis model assessed as inhibition of k-carrageenan-induced thrombus formation at 12.5 mg/kg, po administered for one week followed by k-carrageenan challenge 30 mins post last compound dose and measured after 72 hrs; format: functional
# Erythrocyte = experiment: Hemolytic activity against human erythrocytes assessed as hemolysis at 2.5 to 50 uM after 90 mins; format: ADME, cell-based; conditions: 1.5 h
# Heterodera schachtii [15] = experiment: Inhibition of human fibrinogen at 5 uM after 120 mins by SDS-PAGE analysis
# Prothrombin [16] = biological target: T1, Prothrombin; experiment: Binding affinity to human thrombin at 1.25 to 15 uM after 3 mins by fluorescence spectrometric analysis
# Plasma [17] = experiment: Anticoagulant activity in human platelet poor plasma assessed as prolongation of calcium clotting time after 3 mins; format: functional, cell-free
# Prothrombin [18] = biological target: T1, Prothrombin; experiment: Uncompetitive inhibition of human thrombin using T1637 as substrate by Michaelis-Menten plot analysis
# Mus musculus [19] = experiment: Antithrombotic activity in Swiss albino mouse tail thrombosis model assessed as inhibition of k-carrageenan-induced thrombus formation at 25 mg/kg, po administered for one week followed by k-carrageenan challenge 30 mins post last compound dose and measured after 24 hrs; format: functional
# Mus musculus [20] = experiment: Antithrombotic activity in Swiss albino mouse tail thrombosis model assessed as inhibition of k-carrageenan-induced thrombus formation at 50 mg/kg, po administered for one week followed by k-carrageenan challenge 30 mins post last compound dose and measured after 48 hrs; format: functional
# Mus musculus [21] = experiment: Antithrombotic activity in Swiss albino mouse tail thrombosis model assessed as inhibition of k-carrageenan-induced thrombus formation at 50 mg/kg, po administered for one week followed by k-carrageenan challenge 30 mins post last compound dose and measured after 24 hrs; format: functional
# Mus musculus [22] = experiment: Antithrombotic activity in Swiss albino mouse tail thrombosis model assessed as inhibition of k-carrageenan-induced thrombus formation administered orally for one week followed by k-carrageenan challenge 30 mins post last compound dose and measured after 24 to 72 hrs; format: functional, organism-based
# Prothrombin [23] = biological target: T1, Prothrombin; experiment: Inhibition of human thrombin using T1637 as substrate
# Blood [24] = experiment: Thrombolytic activity in goat heated blood clot assessed as plasmin activation at 1 uM using V0882 as substrate incubated for 20 mins measured for 15 mins in presence of serine protease inhibitor PMSF; format: functional, tissue-based; conditions: Capra hircus
# Plasma [25] = experiment: Anticoagulant activity in human platelet poor plasma assessed as increase in prothrombin time at 1.25 to 15 uM after 3 mins; format: functional, cell-free
# Plasma [26] = experiment: Anticoagulant activity in human platelet poor plasma assessed as activated partial thromboplastin time at 10 uM after 3 mins (reference value: 14.2 +/- 1.3 sec); format: functional
# Blood [27] = experiment: Anticoagulant activity in goat whole blood assessed as prolongation of calcium clotting time after 3 mins; format: functional, tissue-based; conditions: Capra hircus
# [28] = biological target: Coagulation factor X (Homo sapiens) (UniProt P00742); experiment: Inhibition of human factor 10a assessed as prothrombin activation using F3301 as substrate
# Mus musculus [29] = experiment: Antithrombotic activity in Swiss albino mouse tail thrombosis model assessed as inhibition of k-carrageenan-induced thrombus formation at 25 mg/kg, po administered for one week followed by k-carrageenan challenge 30 mins post last compound dose and measured after 72 hrs; format: functional
# Plasma [30] = experiment: Anticoagulant activity in human platelet poor plasma assessed as prolongation of calcium clotting time at 2.5 uM; format: functional, cell-free; conditions: TDE = time-dependent effect
# Prothrombin [31] = biological target: T1, Prothrombin; experiment: Inhibition of thrombin in human washed platelets assessed as reduction in thrombin-induced platelet aggregation after 5 mins
# Mus musculus [32] = experiment: Antithrombotic activity in Swiss albino mouse tail thrombosis model assessed as inhibition of k-carrageenan-induced thrombus formation at 25 mg/kg, po administered for one week followed by k-carrageenan challenge 30 mins post last compound dose and measured after 48 hrs; format: functional
# Mus musculus [33] = experiment: Defibrinogenation activity in Swiss albino mouse plasma at 50 mg/kg, iv measured after 5 hrs; format: functional, organism-based
# Blood [34] = experiment: Thrombolytic activity in goat non-heated blood clot assessed as clot lysed after 3 hrs (reference value: 2.1 +/- 0.3 mg/microM); format: functional, Capra hircus
# Plasma [35] = experiment: Anticoagulant activity in human platelet poor plasma assessed as prolongation of calcium clotting time at 2.5 uM after 3 mins; format: functional, cell-free
# Prothrombin [36] = biological target: T1, Prothrombin; experiment: Inhibition of human thrombin at 7.5 uM using T1637 as substrate preincubated for 30 mins followed by heparin addition by SDS-PAGE analysis
# Blood [37] = experiment: Thrombolytic activity in goat non-heated blood clot assessed as plasmin activation at 1 uM using V0882 as substrate incubated for 20 mins measured for 15 mins; format: functional, Capra hircus
# Prothrombin [38] = biological target: T1, Prothrombin; experiment: Inhibition of thrombin in human platelet rich plasma assessed as reduction in thrombin-induced platelet aggregation after 5 mins
# Blood [39] = experiment: Thrombolytic activity in goat heated blood clot assessed as clot lysed after 3 hrs (reference value: 0.7 +/- 0.2 mg/microM); format: functional, Capra hircus
# [40] = biological target: Coagulation factor X (Homo sapiens) (UniProt P00742); experiment: Binding affinity to human factor 10a at 1.25 to 15 uM after 3 mins by fluorescence spectrometric analysis
# Blood [41] = experiment: Thrombolytic activity in goat non-heated blood clot assessed as plasmin activation at 1 uM using V0882 as substrate incubated for 20 mins measured for 15 mins in presence of serine protease inhibitor PMSF; format: functional, tissue-based; conditions: Capra hircus
# Coagulation factor X (Homo sapiens), sequence (P00742 41-179 limits assumed): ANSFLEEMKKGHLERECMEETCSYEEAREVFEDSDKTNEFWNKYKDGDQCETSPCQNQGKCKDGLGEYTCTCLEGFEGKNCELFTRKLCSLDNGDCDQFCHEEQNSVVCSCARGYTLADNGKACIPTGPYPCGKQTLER
# Coagulation factor X (Homo sapiens), sequence (P00742 235-488 limits assumed): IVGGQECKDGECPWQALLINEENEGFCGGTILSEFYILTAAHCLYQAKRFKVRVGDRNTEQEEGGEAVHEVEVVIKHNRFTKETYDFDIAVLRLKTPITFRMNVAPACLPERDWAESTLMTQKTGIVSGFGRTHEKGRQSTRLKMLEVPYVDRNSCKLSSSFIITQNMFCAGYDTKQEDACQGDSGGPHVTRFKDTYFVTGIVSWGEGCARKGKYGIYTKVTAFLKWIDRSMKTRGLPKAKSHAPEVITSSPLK
smiles,measurement,setting,value
CC(=O)Oc1ccccc1C(=O)O,Activity,Platelet [1],Active
same,Activity,Platelet [2],Active
CC1CNc2c(cccc2S(=O)(=O)N[C@@H](CCCNC(=N)N)C(=O)N2CC[C@@H](C)C[C@@H]2C(=O)O)C1 (some centres not stated) [ARGATROBAN],fold change (FC),Mus musculus [3],4
same,Time,Mus musculus [4],143.5 s
same,fold change (FC),Mus musculus [5],2.3
same,Time,Mus musculus [6],238.6 s
CC[C@H](CC[C@@H](C)[C@H]1CC[C@H]2[C@@H]3CC=C4C[C@@H](O)CC[C@]4(C)[C@H]3CC[C@]12C)C(C)C [BETA-SITOSTEROL],Ka,Prothrombin [7],109 M⁻¹
same,Activity,Blood [8],9.2 mg/µM
same,Activity,HEK293,Non-Toxic
same,inhibition in vivo at 12.5 mg/kg,Mus musculus [9],14.5%
same,inhibition in vivo at 50 mg/kg,Mus musculus [10],47.3%
same,inhibition,Prothrombin [11],Dose-dependent effect
same,Activity,Heterodera schachtii [12],inactive
same,fold change (FC),Mus musculus [3],1.1
same,inhibition in vivo at 12.5 mg/kg,Mus musculus [13],10.5%
same,inhibition in vivo at 12.5 mg/kg,Mus musculus [14],23.2%
same,Activity,Erythrocyte,Non-Toxic
same,Time,Mus musculus [4],61 s
same,inhibition,Heterodera schachtii [15],inactive
same,Activity,Prothrombin [16],Active
same,Activity,Plasma [17],Dose-dependent effect
same,Ki,Prothrombin [18],267 nM
same,inhibition in vivo at 25 mg/kg,Mus musculus [19],15.2%
same,inhibition in vivo at 50 mg/kg,Mus musculus [20],42.3%
same,inhibition in vivo at 50 mg/kg,Mus musculus [21],23.4%
same,inhibition,Mus musculus [22],Dose-dependent effect
same,inhibition,Prothrombin [23],Dose-dependent effect
same,Activity,Blood [24],Active
same,fold change (FC),Mus musculus [5],1.6
same,Activity,Plasma [25],Active
same,APTT,Plasma [26],28.2 s
same,Activity,Blood [27],Dose-dependent effect
same,inhibition,[28],inactive
same,inhibition in vivo at 25 mg/kg,Mus musculus [29],36.5%
same,Activity,Plasma [30],Tde
same,Time,Mus musculus [6],193.5 s
same,inhibition,Prothrombin [31],Dose-dependent effect
same,inhibition in vivo at 25 mg/kg,Mus musculus [32],31.3%
same,Activity,Mus musculus [33],inactive
same,Activity,Blood [34],7.7 mg/µM
same,Activity,Plasma [35],Active
same,inhibition,Prothrombin [36],Active
same,Activity,Blood [37],15.8 mg/µM
same,inhibition,Prothrombin [38],Dose-dependent effect
same,Activity,Blood [39],1 mg/µM
same,Activity,[40],inactive
same,Activity,Blood [41],Active
